Reference: US7671251B2, “In vivo assay for neurite outgrowth in zebrafish and its application in drug screening” (Academia Sinica, priority 2005, dated 2010)

Assays:
[1] = system: PC12D cells; settings: PC12D cells (Li et al., 2004); cited from earlier work
[2] = system: NGF-induced neurite outgrowth; settings: Feng et al., 2004; cited from earlier work
[3] = system: fluorescent blood vessels; settings: transgenic fluorescent embryos (Parng et al., 2002); cited from earlier work
[4] = system: cultured neurons; settings: cultured neurons / neuronal cells (Raulo et al., 1994; Kinnunen et al., 1996; Rauvala et al., 1997); cited from earlier work
[5] = system: HBNF-induced neurite outgrowth; experiment: modified in vivo neurite outgrowth assay in zebrafish embryos, inhibition by injected heparin; settings: heparin injected into zebrafish embryo at two- or four-cell stage; data not shown
From the text: As mentioned above, we modified the in vivo neurite outgrowth assay in zebrafish embryos to investigate the inhibitory effect of heparin or heparan sulfate on HBNF-induced neurite outgrowth by further injection of different dosage of heparin or heparan sulfate into zebrafish embryo at two- or four-cell stage. […] Therefore, the modified assay system also can be used to compare the inhibitory or enhancing effect of HBNF/PTN-induced neurite outgrowth in vivo by heparin and its modified forms, N-syndecan-derived saccharides, and other glycosaminoglycans.

[6] = system: GFP-labeled neurons in zebrafish embryos; experiment: in vivo neurite outgrowth promotion assay, expression construct coinjected with pHuC-GFP into zebrafish embryos; parameters: species or system Zebrafish (Danio rerio); settings: expression construct coinjected with pHuC-GFP at one-cell stage; observed at 48 or 72 hpf
Experimental: The expression construct pcDNA-HBNF-HA and pHuC-GFP (panels 2, 5-7) were coinjected into zebrafish embryos at 1-cell stage. Similar injection of pHuC-GFP alone (panel 1) was used as control. Zebrafish embryos at 72 h postfertilization with GFP fluorescence were selected for image analysis. Embryos are shown as lateral view with anterior to the left. Experiments were repeated at least three times and at least 100 fertilized eggs were used for injection of expression constructs at each time. Four representative patterns with significant enhancement of neurite outgrowth (panels 2, 5-7) were shown. Images of bright field and fluorescence were merged and shown in panels 1, 2, and 5-7, while fluorescence images only in panels 3, 4, 8-10. Higher magnification of two regions marked with yellow boxes in panel 2 was shown in panel 3 and 4, respectively. N, notochord; DF, dorsal fin; VF, ventral fin. Scale bars represent 100 μm.
The expression construct pcDNA-NGF-HA and pHuC-GFP were coinjected into zebrafish embryos at 1-cell stage. Similar injection of pHuC-GFP alone was used as control. Zebrafish embryos at 72 hpf with GFP fluorescence were selected for image analysis. Embryos are shown as lateral view with anterior to the left. Images of bright field and fluorescence were merged and shown in panel 1, while fluorescence images only in panel 2. Higher magnification of the head region and tail region with significant neurite outgrowth in panel 2 was shown in panels 3 and 4, respectively.
The expression construct pGFAP-GDNF-HA and pHuC-GFP were coinjected into zebrafish embryos at 1-cell stage. Similar injection of pHuC-GFP alone was used as control. Zebrafish embryos at 48 hpf with GFP fluorescence were selected for image analysis. […] Images of bright field and fluorescence were merged and shown in panel 1, while fluorescence images only in panel 2. […]
Zebrafish (Danio rerio) were maintained at 28° C. on a 14 h-light/10 h-dark cycle. Embryos were incubated at 28° C. and different developmental stages were determined according to the description in Zebrafish Book (Westerfield, 1995). […]

[7] = system: PC12 cells; experiment: neurite outgrowth in PC12 cells transfected with pcDNA-HBNF-HA; assay type: cell-based, rat; settings: transfected HBNF cDNA under CMV promoter, without NGF stimulation, 72 h posttransfection
[8] = system: neuro2A neuroblastoma cells; settings: Hiwasa et al., 1997; cited from earlier work
[9] = infused directly in putamen (Gill et al., 2003); cited from earlier work

CC(=O)O[C@@H]1[C@@H](O)[C@H](C)O[C@@H](OC[C@H]2O[C@@H](Oc3cc(O)c4c(=O)cc(-c5ccc(O)cc5)oc4c3)[C@H](O)[C@@H](O)[C@@H]2O)[C@@H]1OC(C)=O [Compound 3, apigenin 7-O-alpha-L-2,3-di-O-acetylrhamnopyranosyl-(1→6)-beta-D-glucopyranoside]
enhancing activity of nerve growth factor-mediated neurite outgrowth [1]: enhancing activity

CC(=O)O[C@@H]1[C@@H](O)[C@H](C)O[C@@H](OC[C@H]2O[C@@H](Oc3cc(O)c4c(=O)cc(-c5ccc(O)cc5)oc4c3)[C@H](O)[C@@H](O)[C@@H]2O)[C@@H]1O [Compound 2, apigenin 7-O-alpha-L-3-O-acetylrhamnopyranosyl-(1→6)-beta-D-glucopyranoside]
enhancing activity of nerve growth factor-mediated neurite outgrowth [1]: enhancing activity

COC(=O)[C@]1(O)C[C@H]2O[C@]1(C)n1c3ccc(O)cc3c3c4c(c5c6ccccc6n2c5c31)C(=O)NC4=O [Indocarbazostatin C, Indocarbazostatins C]
inhibition of NGF-induced neurite outgrowth [2]: inhibitors of NGF-induced neurite outgrowth

Cc1[nH]c(/C=C2\C(=O)Nc3ccccc32)c(C)c1CCC(=O)O [SU-6668]
inhibition of angiogenesis [3]: inhibit angiogenesis

low molecular weight heparin
inhibition of HBNF/PTN-induced neurite outgrowth [4]: more potent inhibition

COC(=O)[C@]1(O)C[C@H]2O[C@]1(C)n1c3ccc(O)c(N)c3c3c4c(c5c6ccccc6n2c5c31)C(=O)NC4=O [Indocarbazostatin D]
inhibition of NGF-induced neurite outgrowth [2]: inhibitors of NGF-induced neurite outgrowth

heparin
inhibitory effect on HBNF-induced neurite outgrowth [5]: inhibit HBNF-induced neurite outgrowth

B1: zebrafish HBNF: zebrafish heparin-binding neurotrophic factor (SEQ ID NO: 1) expressed from pcDNA-HBNF-HA (protein)
chain: MQQQWVCVALLALLTVTATLADGGKTEKQGKKERKSDCGEWQWSVCVANEGDCGLGIREGTRSGNDCKQTIKTQRCKIPCNWKKQFGGECKYDFQAWGECDSTTGMKTRTGVLKRALMDANCPNTVSATKPCGKPKTKMQDSQKPKRDGKKKERNPTD
modifications: HA tag; Danio rerio
enhancement of neurite outgrowth in zebrafish embryos [6]: enhance extensive neurite outgrowth | neurite outgrowth in PC12 cells [7]: induce significant neurite outgrowth

B2: zebrafish NGF: zebrafish nerve growth factor expressed from pCMV-NGF-HA (protein, UniProt Q6YBR5 77-194, looked up)
Nerve growth factor: KAGPPQHRGVYSVCESISHWEGNKTKATDITGNEVTVLPDVIINNSKKKQYFFETTCSSGRTGGSGCLGIDARHWNSYCTNSHTFVRALTSFKNLVAWRLIRINVACVCVLSRKSWRA
modifications: HA tag
notes: zebrafish nerve growth factor expressed from pCMV-NGF-HA
enhancement of neurite outgrowth in zebrafish embryos [6]: induce extensive neurite outgrowth

B3: zebrafish GDNF: zebrafish glial-derived neurotrophic factor expressed in glia cells from pGFAP-GDNF-HA (protein, UniProt Q98TU0 90-235, looked up)
Glial cell line-derived …: SSDVEPQMKRDRVRQKAAANTEKSGGRGRGERKRSRGRARSRDDRVKGQGRGCLLKEIHLNVTDLDLGYRTKEELIFRYCSGPCHDAETNYDKILNNLTHNKKLDKDTPSRTCCRPIAFDDDISFLDDSLEYHTLKKHSAKKCACV
modifications: HA tag
notes: zebrafish glial-derived neurotrophic factor expressed in glia cells from pGFAP-GDNF-HA
enhancement of neurite outgrowth in zebrafish embryos [6]: induce extensive neurite outgrowth

B4: recombinant GDNF: recombinant glial-derived neurotrophic factor (Hiwasa et al., 1997) (protein, UniProt P39905 78-211, looked up)
Glial cell line-derived …: SPDKQMAVLPRRERNRQAAAANPENSRGKGRRGQRGKNRGCVLTAIHLNVTDLGLGYETKEELIFRYCSGSCDAAETTYDKILKNLSRNRRLVSDKVGQACCRPIAFDDDLSFLDDNLVYHILRKHSAKRCGCI
neurite outgrowth of neuro2A neuroblastoma cells [8]: induce neurite outgrowth

B5: GDNF: glial-derived neurotrophic factor infused directly in putamen in a clinical trial (protein, UniProt P39905 78-211, looked up)
Glial cell line-derived …: B4 Glial cell line-derived …
side-effects [9]: does not have significant side-effects | treatment effect in Parkinson disease [9]: effective treatment for Parkinson disease
